# What was measured:
# Type in all cases: in vivo
# soybean = assay: Test Example 5: effect on crop by foliage application, plastic box (symbol d); details: 320 g/ha, 3 weeks after application
# Summary of the method: (§1)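 Diluvial soil, sterilized and boxed (21 × 13 × 7 cm), received spot-sown seed covered by about 1.5 cm soil; plants were then greenhouse-grown at 25–30° C.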
# corn [1] = assay: Test Example 4: effect on crop by soil treatment (symbol c); details: 320 g/ha
# Summary of the method: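 Plants are raised in a greenhouse (25° C. to 30° C.) from spot-sown seed, which sits under about 1.5 cm of sterilized diluvial soil in a box shared with weed species.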
# [2] = tested on: Echinochloa crus-galli var. crus-galli; assay: Test Example 5: herbicidal effect by foliage application, plastic box (symbol H); details: 320 g/ha, 3 weeks after application
# Summary of the method: (§2)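 Herbicide, formulated as an emulsion and diluted in water, is sprayed onto the aerial parts of 14-day seedlings. These were grown at 25° C. to 30° C. in sterilized diluvial soil; effects are graded after 3 weeks.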
# corn [3] = assay: Test Example 5: effect on crop by foliage application, plastic box (symbol c); details: 320 g/ha, 3 weeks after application
# Summary of the method: as §1
# Alopecurus myosuroides = assay: Test Example 5: herbicidal effect by foliage application, plastic box (symbol J); details: 320 g/ha, 3 weeks after application
# Summary of the method: as §2
# rice = assay: Test Example 4: effect on crop by soil treatment (symbol b); details: 320 g/ha
# Summary of the method: (§3)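 Crop seed is sown in spots together with several weed species in a box of sterilized diluvial soil. It is covered by about 1.5 cm of soil and kept in a greenhouse held between 25° C. and 30° C.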
# rapeseed = assay: Test Example 4: effect on crop by soil treatment (symbol g); details: 320 g/ha
# Summary of the method: as §3
# Monochoria vaginalis = assay: Test Example 2: herbicidal activity, application during weed generation in submerged conditions (symbol C); details: Table 23; application herbicide amount 320 g/ha; grade 0-5 by criteria of Test Example 1
# Summary of the method: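 Flooded-soil post-emergence test: emulsion of compound, water-diluted to target rate, applied to paddy water surface at 1–2 leaf stage of mixed-sown weeds (alluvial soil, 4 cm water, 25–30° C. greenhouse); visual rating 3 weeks after application.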
# Leptochloa chinensis = assay: Test Example 3: herbicidal effect by foliage application, Wagner pot (symbol D); details: application herbicide amount 320 g/ha
# Summary of the method: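 Rating at 3 weeks post-spray, by defined criteria. Treatment: emulsion diluted with water to a predetermined amount, applied evenly to foliage of 14-day-old plants raised in alluvial soil flooded 0.1–0.5 cm deep at 25–30 °C, rice co-sown.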
# Avena fatua = assay: Test Example 4: herbicidal effect by soil treatment (symbol I); details: 320 g/ha
# Summary of the method: (§4)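 Seeds were sown in sterilized diluvial soil, covered with about 1.5 cm of soil, and the soil surface was sprayed with a water-diluted emulsion of the compound at a predetermined rate. Plants grew in a greenhouse at 25° C. to 30° C.; effects were scored visually 3 weeks after application.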
# Digitaria ciliaris = assay: Test Example 4: herbicidal effect by soil treatment (symbol F); details: 320 g/ha
# Summary of the method: as §4
SMILES,"d: soybean, effect on crop (criteria 0-5) (soybean)","c: corn, effect grade on crop (corn [1])","H: Echinochloa crus-galli var. crus-galli, herbicidal effect (criteria 0-5) [2]","c: corn, effect on crop (criteria 0-5) (corn [3])","J: Alopecurus myosuroides, herbicidal effect (criteria 0-5) (Alopecurus myosuroides)","b: directly sowed rice plant, effect grade on crop (rice)","g: rapeseed, effect grade on crop (rapeseed)","Herbicidal effect grade, C: Monochoria vaginalis (Monochoria vaginalis)","herbicidal effect on D (Leptochloa chinensis), grade 0-5 (Leptochloa chinensis)","I: Avena fatua, herbicidal effect grade (Avena fatua)","F: Digitaria ciliaris, herbicidal effect grade (Digitaria ciliaris)"
COc1ccc(CON=C(C)CC2CC(O)=C(c3c(C)cc(C)cc3C)C2=O)cc1 (centres unmarked) [1-112],0 (Herbicidal ratio of 5% or lower (almost no effect)),1 (Herbicidal ratio of 5% or higher and lower than 20%),5 (Herbicidal ratio of 90% or more (almost completely withered)),4 (Herbicidal ratio of 70% or higher and lower than 90%),5 (Herbicidal ratio of 90% or more (almost completely withered)),5 (Herbicidal ratio of 90% or more (almost completely withered)),0 (Herbicidal ratio of 5% or lower (almost no effect)),4 (Herbicidal ratio of 70% or higher and lower than 90%),5 (Herbicidal ratio of 90% or more (almost completely withered)),3 (Herbicidal ratio of 40% or higher and lower than 70%),4 (Herbicidal ratio of 70% or higher and lower than 90%)
CC(CC1CC(O)=C(c2c(C)cc(C)cc2C)C1=O)=NOCc1cccc(Cl)c1 (centres unmarked) [1-114],0 (Herbicidal ratio of 5% or lower (almost no effect)),0 (Herbicidal ratio of 5% or lower (almost no effect)),5 (Herbicidal ratio of 90% or more (almost completely withered)),1 (Herbicidal ratio of 5% or higher and lower than 20%),4 (Herbicidal ratio of 70% or higher and lower than 90%),3 (Herbicidal ratio of 40% or higher and lower than 70%),1 (Herbicidal ratio of 5% or higher and lower than 20%),4 (Herbicidal ratio of 70% or higher and lower than 90%),5 (Herbicidal ratio of 90% or more (almost completely withered)),3 (Herbicidal ratio of 40% or higher and lower than 70%),5 (Herbicidal ratio of 90% or more (almost completely withered))
CC(CC1CC(O)=C(c2c(C)cc(C)cc2C)C1=O)=NOCc1ccccc1C(F)(F)F (centres unmarked) [1-116],3 (Herbicidal ratio of 40% or higher and lower than 70%),0 (Herbicidal ratio of 5% or lower (almost no effect)),5 (Herbicidal ratio of 90% or more (almost completely withered)),5 (Herbicidal ratio of 90% or more (almost completely withered)),5 (Herbicidal ratio of 90% or more (almost completely withered)),1 (Herbicidal ratio of 5% or higher and lower than 20%),2 (Herbicidal ratio of 20% or higher and lower than 40%),2 (Herbicidal ratio of 20% or higher and lower than 40%),3 (Herbicidal ratio of 40% or higher and lower than 70%),3 (Herbicidal ratio of 40% or higher and lower than 70%),1 (Herbicidal ratio of 5% or higher and lower than 20%)
CC(CC1CC(O)=C(c2c(C)cc(C)cc2C)C1=O)=NOCc1cccc(C(F)(F)F)c1 (centres unmarked) [1-117],0 (Herbicidal ratio of 5% or lower (almost no effect)),0 (Herbicidal ratio of 5% or lower (almost no effect)),5 (Herbicidal ratio of 90% or more (almost completely withered)),3 (Herbicidal ratio of 40% or higher and lower than 70%),5 (Herbicidal ratio of 90% or more (almost completely withered)),5 (Herbicidal ratio of 90% or more (almost completely withered)),2 (Herbicidal ratio of 20% or higher and lower than 40%),3 (Herbicidal ratio of 40% or higher and lower than 70%),4 (Herbicidal ratio of 70% or higher and lower than 90%),0 (Herbicidal ratio of 5% or lower (almost no effect)),4 (Herbicidal ratio of 70% or higher and lower than 90%)
CC(CC1CC(O)=C(c2c(C)cc(C)cc2C)C1=O)=NOCC(C)Cl (centres unmarked) [1-121],2 (Herbicidal ratio of 20% or higher and lower than 40%),1 (Herbicidal ratio of 5% or higher and lower than 20%),5 (Herbicidal ratio of 90% or more (almost completely withered)),5 (Herbicidal ratio of 90% or more (almost completely withered)),5 (Herbicidal ratio of 90% or more (almost completely withered)),5 (Herbicidal ratio of 90% or more (almost completely withered)),3 (Herbicidal ratio of 40% or higher and lower than 70%),1 (Herbicidal ratio of 5% or higher and lower than 20%),5 (Herbicidal ratio of 90% or more (almost completely withered)),1 (Herbicidal ratio of 5% or higher and lower than 20%),5 (Herbicidal ratio of 90% or more (almost completely withered))
CON=C(C)CC1CC(OS(=O)(=O)N(C)C)=C(c2c(C)cc(C)cc2C)C1=O (centres unmarked) [1-122],4 (Herbicidal ratio of 70% or higher and lower than 90%),2 (Herbicidal ratio of 20% or higher and lower than 40%),5 (Herbicidal ratio of 90% or more (almost completely withered)),5 (Herbicidal ratio of 90% or more (almost completely withered)),5 (Herbicidal ratio of 90% or more (almost completely withered)),4 (Herbicidal ratio of 70% or higher and lower than 90%),0 (Herbicidal ratio of 5% or lower (almost no effect)),0 (Herbicidal ratio of 5% or lower (almost no effect)),5 (Herbicidal ratio of 90% or more (almost completely withered)),2 (Herbicidal ratio of 20% or higher and lower than 40%),2 (Herbicidal ratio of 20% or higher and lower than 40%)
CC(CC1CC(O)=C(c2c(C)cc(C)cc2C)C1=O)=NOCC(N)=O (centres unmarked) [1-124],0 (Herbicidal ratio of 5% or lower (almost no effect)),0 (Herbicidal ratio of 5% or lower (almost no effect)),5 (Herbicidal ratio of 90% or more (almost completely withered)),4 (Herbicidal ratio of 70% or higher and lower than 90%),3 (Herbicidal ratio of 40% or higher and lower than 70%),1 (Herbicidal ratio of 5% or higher and lower than 20%),0 (Herbicidal ratio of 5% or lower (almost no effect)),0 (Herbicidal ratio of 5% or lower (almost no effect)),5 (Herbicidal ratio of 90% or more (almost completely withered)),0 (Herbicidal ratio of 5% or lower (almost no effect)),0 (Herbicidal ratio of 5% or lower (almost no effect))
